# Data from patent publication US10711005B2, “Compound I and compound II as well as preparation methods therefor and application thereof” (SHENZHEN UNIVERSITY, priority 2015, dated 2020).
# Experiments:
# [1] = system: spleen lymphocytes; test: ELISA detection of cytokines IFN-γ and IL-12 generated by spleen lymphocytes after stimulation of T7-EA; type: cell-based, mice; details: 24 hours
# Experimental: (§1) The mice are broken the neck to death and soaked in 75% ethanol, and then placed on the super-clean bench for taking the spleen out with a sterile operation. The spleen is grinded in the 35 mm culture dish containing 4-5 ml Mouse1×lymphocyte separating medium. Then separating medium suspended with spleen cells is transferred to the 15 ml centrifuge tube and enclosed with 500 μl RPMI-1640, After that the centrifuge tube is centrifuged at room temperature for 30 minutes at 800 G. Then the middle buffy coat is placed into a centrifuge tube containing 10 ml culture medium for being overthrown and washed. After that, the centrifuge tube is further centrifuged at 250 G for 10 minutes at room temperature. The supernatant is discarded and the cell pellet is dissipated by the culture medium and counted. The spleen leukomonocytes are deposited on the 24-well plate with a final cell density of 1×10^6/ml. T7-EA with corresponding concentrations (0, 0.01, 0.1, 0.5, 1, 2, 4, 8, 16, 20, 24 μmol/L) is added and incubated for 24 hours in the cell culture box. The supernatant is collected on the second day and tested according to the operation manual of the ELISA kit. […] When the T7-EA has a concentration ≤4 μmol/L, better effects can be obtained. Accordingly, 4 μmol/L is the effective concentration of the T7-EA.
# [2] = system: protein of mammary cancer 4T1 cells; test: Whole-cell antibody detection (serum IgG ELISA); type: in vivo, mice; details: blood collected sixth day after each of 4 immunotherapies, FIG. 12
# Experimental: The protein of mammary cancer 4T1 cells is extracted and the concentration of which is also measured in accordance with the operation manual of the BCA protein quantitative kits. The extracted protein is used as the envelope antigen. The venous blood of mice is collected sixth days after each immunotherapy, and its supernatant is collected for 4 times. The serum antibody is measured in accordance with the operation manual of the ELISA kit.
# [3] = system: spleen lymphocytes; test: Lymphocyte proliferation experiment (CCK8); type: cell-based, mice; details: 24 hours; for proliferation of the lymphocytes: CCK8, FIG. 4
# Experimental: The activation and proliferation abilities of T7-EA on the lymphocytes are detected. The mice are broken the neck to death and soaked in 75% ethanol, and then placed on the super-clean bench for taking the spleen out with a sterile operation. The spleen is grinded in the 35 mm culture dish containing 4-5 ml murine lymphocyte separating medium. Then obtained cell suspension is transferred to the 15 ml centrifuge tube in which 500 μl RPMI-1640 is gently added along the tube wall for enclosure. After that the centrifuge tube is centrifuged for 30 minutes at 800 G. Then the centrifuged layer containing the lymphocytes is further centrifuged at 250 G for 10 minutes in a centrifuge tube containing 10 ml culture medium. The supernatant is discarded and the cell pellet is dissipated by the culture medium and counted. The spleen leukomonocytes are deposited on the 96-well plate with a cell density of 2×10^5/each well. T7-EA with corresponding concentrations (0, 0.001, 0.01, 0.1, 1, 2, 4, 8, 16, 20, 24 μmol/L) is added onto the 96-well plate and incubated for 24 hours in the cell culture box of 5% CO2 and saturated humidity at 37° C. The effect of the T7-EA on the proliferation of the lymphocytes is detected by CCK8 after the 24 hours incubation according to the operation manual of the CCK8 kits, and the results are shown in FIG. 4. […] When the T7-EA has a concentration of 4 μmol/L, the relative proliferation rate is about 50%.
# [4] = system: spleen lymphocytes; test: ELISA detection of IFN-γ and IL-12 after stimulation of spleen lymphocytes in vitro by T7-EA; type: cell-based, mice; details: 24 hours, FIGS. 3A-3B
# Experimental: The mice are broken the neck to death and soaked in 75% ethanol for 5 minutes, and then placed on the super-clean bench for taking the spleen out with a sterile operation. The spleen is grinded in the 35 mm culture dish containing 4-5 ml murine lymphocyte separating medium. Then obtained cell suspension is transferred to the 15 ml centrifuge tube in which 500 μl RPMI-1640 is gently added along the tube wall for enclosure. After that the centrifuge tube is centrifuged for 30 minutes at 800 G. Then the centrifuged layer containing the lymphocytes is further centrifuged at 250 G for 10 minutes in a centrifuge tube containing 10 ml culture medium. The supernatant is discarded and the cell pellet is dissipated by the culture medium and counted. The spleen leukomonocytes are deposited on the 24-well plate with a cell density of 1×10^6/ml. T7-EA with corresponding concentrations (0, 0.001, 0.01, 0.1, 1, 2, 4, 8, 16, 20, 24 μmol/L) is added into each well and incubated for 24 hours in the cell culture box of 5% CO2 and saturated humidity at 37° C. The supernatant is collected on the second day and tested according to the operation manual of the ELISA kit. The supernatants are collected after stimulating the spleen lymphocytes with T7-EA of different concentrations for 24 hours, and the ELISA test results are shown in FIGS. 3A-3B.
# [5] = system: murine melanoma cell line B16f10; test: Anti tumor experiment of T7-EA in vivo (melanoma-bearing mice); parameters: species or system BALB/c mice; details: T7-EA 10 mg/Kg once every three days for 2 weeks; vs control group, T7 group and EA group (P<0.01), FIG. 5
# Description: The used materials comprise animal and cell strain BALB/c mice, female, 5-6 weeks old, provided by the Guangdong Medical Laboratory Animal Center; and murine melanoma cell line B16f10 purchased from Shanghai ATCC Cell Bank.
# 24 4-5 weeks old female BALB/c mice are loaded with 5×10^5 tumor cells/each one after 1 weeks of quarantine at SPF level in an animal room. The mice bearing tumors are randomly divided into 75% ethanol control group, T7 group, EA group and T7-EA group, when the diameter of the tumor reaches 5 mm. The corresponding drugs are given to each group with a dosage of T7-EA 10 mg/Kg, T7 5 mg/kg, EA 12.5 mg/kg once every three days for 2 weeks. During the treatment, the tumor growth is observed by measuring the tumor size every three days. The tumor surface area is calculated according to the following formula: S=tab (wherein a represents the long diameter, while b represents the short diameter). The 24 mice are loaded with 5×10^5 tumor cells/each one after 7 days of quarantine at SPF level in an animal room. The mice bearing tumors are randomly divided into 75% ethanol control group, T7 group, EA group and T7-EA group, when the diameter of the tumor reaches 5 mm. The corresponding drugs are given to each group once every three days for 2 weeks, and the tumor size is measured every three days.
# [6] = system: spleen lymphocytes; test: ELISA detection of cytokines IFN-γ and IL-12 generated by spleen lymphocytes after stimulation of T7-EA-ROR1; type: cell-based, murine; details: final T7-EA concentration 4 μmol/L, T7-EA:ROR1 molar ratio 1:1, FIGS. 10A-10B
# Experimental: as §1, with “T7-EA. […]” for “T7-EA.”
# [7] = system: B16f10 melanoma cells; test: CTL experiment (LDH method), spleen lymphocytes of treated mice against B16f10; type: in vivo; details: effector:target 50:1, 4 hours, after two weeks of administration; vs control, T7 and EA groups (P<0.05), FIG. 6
# Experimental: The activity of cytotoxic T lymphocyte (CTL) is determined by the method of Lactic dehydrogenase (LDH) with CytoTox96Promega kits. The mice in the experimental group are broken the neck to death. The spleen lymphocytes are taken as the effector cells while the B16f10 melanoma cells are used as the target cells. The effector cells and the target cells are mixed up with a ratio of 50:1 and cultured for 4 hours. The specific operation steps can be implemented according to the operation manual, while the kill rate can calculated as follows: the killing rate (%)=(OD value of the experimental group−pontaneous OD value of the effector cells−pontaneous OD value of the target cells)/(Maximum OD value of the target cells−pontaneous OD value of the target cells)×100%. The mice in the experimental group are broken the neck to death after two weeks of administration. The spleen lymphocytes are taken as the effector cells while the B16f10 melanoma cells are used as the target cells. The effector cells and the target cells are spread onto 96-well U-shape plate according to a ratio of 50:1 and cultured together for 4 hours.
# [8] = system: dendritic cells derived from bone marrow cells; details: in vitro; cited from earlier work
# [9] = system: lymphocyte; details: cited from earlier work
# [10] = higher concentration (>4 μmol/L)
# [11] = lower concentration (≤4 μmol/L)
Structure (SMILES),"generation of cytokines IFN-γ and IL-12 by lymphocytes ([1]; 0-24 μmol/L, FIGS. 8A-8B)",effective concentration of the T7-EA ([1]; IFN-γ and IL-12 induction) [µmol/L],level of IgG antibody in the mice sera [2],relative proliferation rate ([3]; concentration of 4 μmol/L),"lethal effect on the lymphocytes ([3]; higher concentration (>4 μmol/L), CCK8)","proliferation of the lymphocytes [3, 10]","proliferation of the lymphocytes [3, 11]","ability for activating lymphocytes (generation of IFN-γ and IL-12) [4, 10]","ability for activating lymphocytes (generation of IFN-γ and IL-12) [4, 11]",growth of the tumor (tumor surface area) [5],generation of cytokines IFN-γ and IL-12 by spleen lymphocytes [6],immune killing effect (CTL killing rate) [7],production of inflammatory mediators TNF-a and IL-12 [8],production of inflammatory mediators IFN-γ and IL-12 [9]
C=C(CC)C(=O)c1ccc(OCC(=O)NCc2ccc(Cn3c(O)nc4c(N)nc(OCCOC)nc43)cc2)c(Cl)c1Cl [T7-EA],can activate the lymphocytes and induce the lymphocytes to generate cytokines IFN-γ and IL-12,4,increases gradually with the increase of immunization times,about 50%,no lethal effect on the lymphocytes,no effect on the proliferation of the lymphocytes,can promote the proliferation of the lymphocytes,decreased ability for activating lymphocytes,stronger ability for activating lymphocytes,significantly inhibited the growth of the tumor,can induce the spleen lymphocytes to generate cytokines IFN-γ and IL-12,stronger immune killing effect on melanoma,–,–
COCCOc1nc(N)c2nc(O)n(Cc3ccc(CN)cc3)c2n1 [T7],–,–,–,–,–,–,–,–,–,–,–,–,"inflammatory mediators, such as TNF-a and IL-12 can be produced rapidly","inflammatory mediators, such as IFN-γ and IL-12 can also be produced rapidly"
